Test results reported in ChEMBL document CHEMBL1141564, “Meriolins (3-(pyrimidin-4-yl)-7-azaindoles): synthesis, kinase inhibitory activity, cellular effects, and structure of a CDK2/cyclin A/meriolin complex” (J Med Chem, 2008).

Legend:
[1] = test system: HEK293; experiment: cells; settings: Homo sapiens, HEK293, 48 h
Description: Survival of human HEK293 cells after 48 hrs by MTS reduction assay

[2] = test system: KMS-11; experiment: cells; settings: Homo sapiens, KMS-11, 48 h
Description: Survival of human KMS11 cells after 48 hrs by neutral red reduction assay

[3] = test system: LS174T; experiment: cells; settings: Homo sapiens, 48 h
Description: Survival of human LS174T cells after 48 hrs by MTS reduction assay

[4] = biological target: CDK9/cyclin T1 (Homo sapiens, UniProt P50750); experiment: Inhibition of human recombinant CDK9/cyclin T expressed in insect cells
CDK9/cyclin T1, sequence (O60563 whole entry): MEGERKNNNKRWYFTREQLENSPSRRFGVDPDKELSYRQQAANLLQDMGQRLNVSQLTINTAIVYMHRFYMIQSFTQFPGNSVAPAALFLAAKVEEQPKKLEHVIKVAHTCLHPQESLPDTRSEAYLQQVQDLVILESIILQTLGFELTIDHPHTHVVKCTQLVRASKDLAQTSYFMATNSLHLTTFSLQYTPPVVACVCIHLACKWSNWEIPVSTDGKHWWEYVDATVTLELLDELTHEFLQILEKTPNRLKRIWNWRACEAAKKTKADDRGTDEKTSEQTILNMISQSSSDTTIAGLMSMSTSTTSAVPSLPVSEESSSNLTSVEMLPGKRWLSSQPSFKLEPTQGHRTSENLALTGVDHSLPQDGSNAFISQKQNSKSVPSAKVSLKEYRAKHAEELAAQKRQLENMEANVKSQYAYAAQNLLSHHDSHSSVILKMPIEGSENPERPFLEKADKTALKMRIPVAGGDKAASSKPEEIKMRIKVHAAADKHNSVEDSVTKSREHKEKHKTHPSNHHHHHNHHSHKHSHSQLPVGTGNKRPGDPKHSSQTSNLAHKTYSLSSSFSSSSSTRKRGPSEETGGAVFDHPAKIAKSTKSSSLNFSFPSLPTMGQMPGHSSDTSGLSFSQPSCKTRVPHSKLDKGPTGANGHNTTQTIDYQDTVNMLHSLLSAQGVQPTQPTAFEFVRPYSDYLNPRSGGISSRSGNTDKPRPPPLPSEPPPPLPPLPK
CDK9/cyclin T1, sequence (P50750 whole entry): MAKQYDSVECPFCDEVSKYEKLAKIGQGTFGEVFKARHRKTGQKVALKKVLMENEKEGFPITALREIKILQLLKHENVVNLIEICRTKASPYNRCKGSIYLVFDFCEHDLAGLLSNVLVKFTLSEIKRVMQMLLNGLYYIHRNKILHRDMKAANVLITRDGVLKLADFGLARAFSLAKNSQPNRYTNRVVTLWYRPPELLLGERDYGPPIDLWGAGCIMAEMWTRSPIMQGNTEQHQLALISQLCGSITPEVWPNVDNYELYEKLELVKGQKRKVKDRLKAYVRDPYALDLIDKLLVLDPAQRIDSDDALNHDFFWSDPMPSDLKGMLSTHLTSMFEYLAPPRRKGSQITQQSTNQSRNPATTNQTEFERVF

[5] = Inhibition of starfish oocyte CDK1/cyclin B; parameters: species or system Marthasterias glacialis
[6] = Inhibition of pig GSK-3-alpha/GSK-3beta; parameters: species or system Sus scrofa
[7] = biological target: Cyclin-dependent kinase 2/cyclin A (Homo sapiens, UniProt P24941); experiment: Inhibition of human recombinant CDK2/cyclin A expressed in insect cells
[8] = test system: SH-SY5Y; experiment: cells; settings: Homo sapiens, 48 h
Description: Survival of human SHSY5Y cells after 48 hrs by MTS reduction assay

[9] = Inhibition of pig CK1delta/CK1epsilon; parameters: species or system Sus scrofa
[10] = biological target: Cyclin-dependent kinase 5/CDK5 activator 1 (Homo sapiens, UniProt Q00535); experiment: Inhibition of recombinant GST-CDK5/p25 expressed in Escherichia coli
Cyclin-dependent kinase 5/CDK5 activator 1, sequence (Q00535 whole entry): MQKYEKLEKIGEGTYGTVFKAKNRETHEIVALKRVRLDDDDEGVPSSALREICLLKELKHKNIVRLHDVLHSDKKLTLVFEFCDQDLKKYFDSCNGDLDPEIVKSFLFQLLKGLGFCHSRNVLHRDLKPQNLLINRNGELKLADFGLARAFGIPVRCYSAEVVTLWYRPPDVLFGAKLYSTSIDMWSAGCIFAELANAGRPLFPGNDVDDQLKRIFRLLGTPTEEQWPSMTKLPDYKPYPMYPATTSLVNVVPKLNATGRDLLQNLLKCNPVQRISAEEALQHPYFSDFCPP
Cyclin-dependent kinase 5/CDK5 activator 1, sequence (Q15078 whole entry, further chain): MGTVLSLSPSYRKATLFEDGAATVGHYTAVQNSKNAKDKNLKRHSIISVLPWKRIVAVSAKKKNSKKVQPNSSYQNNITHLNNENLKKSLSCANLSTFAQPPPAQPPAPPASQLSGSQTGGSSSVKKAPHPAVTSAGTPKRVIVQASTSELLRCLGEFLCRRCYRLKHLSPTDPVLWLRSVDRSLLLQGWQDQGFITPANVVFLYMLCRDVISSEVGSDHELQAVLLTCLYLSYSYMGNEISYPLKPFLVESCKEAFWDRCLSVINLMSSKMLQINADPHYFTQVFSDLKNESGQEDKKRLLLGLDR

[11] = test system: GBM; experiment: cells; settings: Homo sapiens, 48 h
Description: Survival of human GBM cells after 48 hrs by neutral red reduction assay

[12] = biological target: Dual specificity tyrosine-phosphorylation-regulated kinase 1A (Rattus norvegicus, UniProt Q63470); experiment: Inhibition of rat recombinant GST-DYRK1A expressed in Escherichia coli
[13] = test system: HCT-116; experiment: Antiproliferative activity against human HCT116 cells assessed as reduction in diameter of spheroids at 1 uM after 5 days; type: functional
[14] = test system: HCT-116; experiment: Antiproliferative activity against human HCT116 cells after 5 days; type: functional, cell-based; settings: HCT-116, 120 h

Row | SMILES | IC50 [1] [nM] | IC50 [2] [nM] | IC50 [3] [nM] | IC50 [4] [nM] | IC50 [5] [nM] | IC50 [6] [nM] | IC50 [7] [nM] | IC50 [8] [nM] | IC50 [9] [nM] | IC50 [10] [nM] | IC50 [11] [nM] | IC50 [12] [nM] | Activity [13] [um] | IC50 [14] [nM]
1 | CCCOc1ccnc2[nH]cc(-c3ccnc(N)n3)c12 [MERIOLIN 5] | 85 | 40 | 47 | 5.6 | 7 | 25 | 3 | 26 | 200 | 3 | 80 |  |  | 
2 | CC(C)Oc1ccnc2[nH]cc(-c3ccnc(N)n3)c12 [MERIOLIN 6] | 89 |  | 60 | 5.6 | 8 | 21 |  |  | 140 | 3 | 80 |  |  | 
3 | COc1ccnc2c1c(-c1ccnc(N)n1)cn2C [MERIOLIN 9] |  |  |  |  | 25000 |  |  |  |  | 73000 |  |  |  | 
4 | COc1ccnc2[nH]cc(-c3ccncn3)c12 | 35500 | 10000 | 10000 | 220 |  | 1100 | 800 | 10200 | 600 | 1300 | 10000 |  |  | 
5 | Nc1nccc(-c2c[nH]c3nccc(O)c23)n1 [MERIOLIN 2] | 960 | 600 | 1060 | 18 | 57 | 400 | 18 | 410 |  | 50 | 1210 |  |  | 
6 | Nc1nccc(-c2c[nH]c3nc(Br)ccc23)n1 | > 100000 | > 15000 | > 30000 | 1000 | 2200 | 30000 | 1300 | 43000 |  | 680 | > 20000 | 300 |  | 
7 | Nc1nccc(-c2c[nH]c3nccc(Cl)c23)n1 | 10800 | 7500 | > 10000 | 50 | 240 | 2000 | 60 | 1920 | 3000 | 230 | 10000 |  |  | 
8 | COCCOc1ccnc2[nH]cc(-c3ccnc(N)n3)c12 [MERIOLIN 7] | > 100000 | > 20000 | > 30000 | 5300 | 35000 | 63000 | > 10000 | > 100000 | 100000 | 14000 | > 20000 | > 10000 |  | 
9 | COc1ccnc2[nH]cc(-c3ccnc(N)n3)c12 [MERIOLIN 3] | 240 | 120 | 130 | 6 | 170 | 230 | 11 | 73 | 200 | 170 | 140 |  | 720 | 63
10 | COc1ccnc2[nH]cc(-c3ccnc(SC)n3)c12 | 66000 | > 20000 | > 30000 | 1100 | 1800 | 7000 | 2100 | > 100000 | 600 | 2300 | > 20000 |  |  | 
11 | Cn1cc(-c2ccnc(N)n2)c2c(O)ccnc21 [MERIOLIN 8] | > 30000 | > 20000 | > 30000 | 1200 |  | 4600 | 1800 | > 30000 | 2300 | 5500 | > 20000 |  |  | 
12 | Nc1nccc(-c2c[nH]c3ncccc23)n1 [MERIOLIN 1] | 2200 | 1270 | 1500 | 26 |  |  |  | 670 |  | 510 | 1380 |  |  | 
13 | CCOc1ccnc2[nH]cc(-c3ccnc(N)n3)c12 [MERIOLIN 4] | 220 | 60 | 100 | 7 | 10 | 30 | 7 | 81 | 100 | 5 | 130 |  |  | 
14 | Oc1ccnc2[nH]cc(-c3ccncn3)c12 | 84000 | > 15000 | 23500 | 250 |  | 1800 | 700 | 28000 |  | 700 | > 20000 |  |  | 
